Reference: patent US11912569B2, “Method for manufacturing chlorous acid water using raw material obtained by salt electrolysis” (HONBUSANKEI CO., LTD., priority 2016, dated 2024)
Read-outs that look alike come from different tables or passages of the source.

Legend:
[1] = system: E. coli; assay: Phenol coefficient method; format: cell-based
Protocol: The following is the operation method thereof.
5% phenol solution: Phenol is dissolved with hot water of about 70° C. 25 mL is measured out and precisely diluted to 500 mL with water (40° C.). The specific gravity at 20° C. is confirmed to be within the range of 1.000±0.005.
Liquid medium (1 L volume): 18.0 g of normal broth medium is added to 1 L of water in a 1000 mL Erlenmeyer flask with a stopper. They are mixed and dissolved for about 30 minutes at normal temperature.
Liquid medium (volume of 200 mL): about 18.0 g of normal broth medium is added to 1 L of water. They were mixed and dissolved for about 30 minutes at normal temperature.
Liquid medium (test tube): about 18.0 g of normal broth medium is added to 1 L of water. […]
The inoculated test tube is placed in a vortex mixer and sealed, and incubated for 24 hours at 37° C. Test segments observed to have opacity after incubation are recorded as “+” and test segments without opacity are recorded as “−”. However, a cotton swab is immersed in the liquid medium of the test segments evaluated as “+”, and the medium is smeared onto a desoxycholate medium (flat plate) from the center to the outside so as to draw a straight line. […]
After culturing for a predetermined time, samples observed to have a typical red colony where the medium was smeared are evaluated as “+”, and samples with no observed red colony is evaluated as “−”. […]

[2] = system: E. coli; format: cell-based
Protocol: The following samples were prepared to measure the oxidation capability: sodium hypochlorite converted concentration and phenol coefficient for each of the chlorine oxides.
These samples were used to measure the oxidation capability: sodium hypochlorite converted concentration and phenol coefficient while appropriately dilution with ion exchange water.
The following sample was prepared. The oxidation capability and phenol coefficient were measured immediately after manufacture and on day 5.
They were compared based on dissolved chlorine dioxide as the control.

Compound | phenol coefficient ([1]; available chlorine concentration of 25% (w/v), saturation concentration) | phenol coefficient per oxidation capability (100) ([1]; phenol coefficient divided by oxidation capability and multiplied by 100, from the values of Example 1) | Oxidation capability: sodium hypochlorite converted concentration at each phenol coefficient ([2]; phenol coefficient 0) | Oxidation capability: sodium hypochlorite converted concentration at each phenol coefficient ([2]; phenol coefficient 1) | Oxidation capability: sodium hypochlorite converted concentration at each phenol coefficient ([2]; phenol coefficient 2) | Oxidation capability: sodium hypochlorite converted concentration at each phenol coefficient ([2]; phenol coefficient 3) | Oxidation capability: sodium hypochlorite converted concentration at each phenol coefficient ([2]; phenol coefficient 5) | Oxidation capability: sodium hypochlorite converted concentration at each phenol coefficient ([2]; phenol coefficient 10) | Oxidation capability: sodium hypochlorite converted concentration at each phenol coefficient ([2]; phenol coefficient 15) | Oxidation capability: sodium hypochlorite converted concentration at each phenol coefficient ([2]; phenol coefficient 25)
sodium chlorite | 0 | 0 | 0 | nonexistent | nonexistent | nonexistent | nonexistent | nonexistent | nonexistent | nonexistent
[O][Cl+][O-] [Dissolved chlorine dioxide] | – | – | 0 | 139 | 279 | 418 | 697 | 1395 | 2092 | 3487
